Laboratory results published in article PMC5983471 (PLoS ONE, 2018).
≈ marks a conversion by molar mass, not a printed value. Where “and” joins values, the source holds several entries; their conditions need not be identical. Identical values can stand only once. Entries after “also recorded” stand apart in the source; their conditions may differ. Like-named read-outs stand apart in the source and are kept apart here.

Legend:
[1] = prior experience; ref 27,60 (S1 Protocol); cited from earlier work
[2] = test system: abiraterone and/or enzalutamide-resistant models, including AR-V7+ cell lines; conditions: cited from earlier work
[3] = test system: metastatic CRPC (PSA); assay: On-study PSA changes; format: in vivo, human
Source text: The primary objective was to assess safety.

[4] = test system: AR-V7 prostate cancer models; parameters: method as in ref 28 (S1 Protocol, Liu et al, 2014); conditions: in vitro, 48 hours exposure; ref 28 (S1 Protocol, Liu et al, 2014); cited from earlier work
[5] = test system: AR-V7+ CWR22Rv1 cells; conditions: 81.8 ng/mL; cited from earlier work
[6] = test system: DU145; conditions: cited from earlier work
[7] = test system: enzalutamide-resistant, AR-V7+ C4-2B cells; conditions: co-cultured with 81.8 ng/mL; cited from earlier work
[8] = published pharmacokinetics data; cited from earlier work
[9] = Plasma niclosamide pharmacokinetics (LCMS, non-compartmental analysis); format: in vivo, human
Protocol: Blood for pharmacokinetic analyses were drawn at the following time points after the first dose: 0.5 hr, 1 hr, 1.5 hr, 2 hr, 3 hr, 4 hr, 6 hr, 8 hr and on Day 15. […] After vortexing, the samples were centrifuged at 20000 x G for 10 minutes at 4°C. The supernatant was transferred to a 96-well plate and 2 μL were injected on the liquid chromatography mass spectrometry (LCMS) system. The LCMS system was an ultrapressure liquid chromatography (Agilent (Santa Clara, CA) 1290 series) coupled to an Agilent G6410B triple-quadrupole mass spectrometer. The column was an Agilent Zorbax SB-C18 2.1 mm x 150 mm x 5μ maintained at 45°C. Mobile phase A was 10 mM ammonium formate (pH = 3) and mobile phase B was acetonitrile in the ratio of 35% A: 65% B at 0.4 mL/min.

[10] = test system: enzalutamide-resistant LNCaP cells engineered to maintain Stat3 activation; conditions: cited from earlier work
[11] = test system: AR-V7 prostate cancer models; parameters: method as in ref 28,29 (S1 Protocol); conditions: combined with enzalutamide or abiraterone; ref 28,29 (S1 Protocol); cited from earlier work
[12] = ref 27,71 (S1 Protocol); cited from earlier work
[13] = Phase I dose-escalation: adverse events and dose-limiting toxicities (CTCAE v4.0)
Protocol: All patients were required to have mCRPC (i.e., disease progression in spite of serum testosterone ≤50 ng/dL) and had received prior abiraterone. Patients were originally required to have detectable AR-V transcripts in circulating tumor cells (CTC) as determined using the AdnaTest assay[9]. […] The primary objective was to assess safety.
We utilized the continual reassessment method (CRM) to evaluate dose-related toxicities and to determine the recommended Phase II dose[37]. We targeted a maximum of 30% of patients incurring dose-limiting toxicities (DLT) up to 30 days after the final (day-28) dose. […] Adverse events (AEs) were documented by incidence and their severity was graded according to the National Cancer Institute–Common Terminology Criteria for Adverse Events (CTCAE) version 4.0. The pharmacokinetic data underwent non-compartmental analysis using Phoenix WinNonlin version 8.0 (Certara USA, Inc; Princeton, NJ), and key pharmacokinetic parameters (e.g., Cmax, Cmin, Css and t1/2) were extracted.

[14] = rats; ref 62 (S1 Protocol, WHO/VBC/DS/88.63); cited from earlier work
[15] = first dose 500 mg PO, plasma, individual patients Pt# 1, 17, 18
[16] = first dose 500 mg PO, Pt# 1, 17, 18
[17] = first dose 1000 mg PO, plasma, individual patients Pt# 19, 20
[18] = first dose 1000 mg PO, Pt# 19, 20
[19] = AE possibly/probably related, 500 mg PO TID + enzalutamide, Pt# 1, 17, 18
[20] = AE possibly/probably related, 1000 mg PO TID + enzalutamide, Pt# 19, 20

## O=C(Nc1ccc([N+](=O)[O-])cc1Cl)c1cc(Cl)ccc1O [niclosamide, 2',5-dichloro-4'-nitrosalicylanilide]
[1]
  patients with gastrointestinal side effects (nausea, vomiting and stomach pain): ~ 10%
[2]
  concentrations that consistently inhibited cell growth: ≥ 163.5 ng/mL
  lowest concentration inhibiting some AR-V7+ cell lines: ≥ 81.8 ng/mL
[3]; 1000 mg PO TID + enzalutamide, Pt# 19
  PSA Day 29: 3009.49 ng/mL
[3]; Day 1 to Day 29, 1000 mg PO TID + enzalutamide, Pt# 19
  PSA Change (%): 101.7%
[3]; all dose cohorts, niclosamide + enzalutamide
  PSA declines: no PSA declines; also recorded: no evidence for declining PSA
[3]; any patient enrolled, niclosamide + enzalutamide
  clinical activity: no evidence of clinical activity
[4]
  lowest concentration inducing apoptosis / inhibiting cell line growth: ≥ 0.25 µg/mL
[5]
  growth inhibition: did not demonstrate significant growth inhibition
[6]
  IC50, decreased cell proliferation: 0.33 µg/mL (≈ 1.01 µM)
[7]
  growth inhibition: growth inhibited
[8]
  oral bioavailability: poor oral bioavailability
[9]; 500 mg PO TID cohort
  patients achieving a Cmax ≥163.5 ng/mL: one of three
[9]; 1000 mg PO TID cohort
  patients achieving a Cmax ≥163.5 ng/mL: one of two
[9]; [15]
  Cmax: 35.7 ng/mL and 88.3 ng/mL
  Tmax: 6 h and 2 h and 1 h
[9]; [16]
  % of AUC0-∞ extrapolated: 26.6% and 13.7% and 17.2%
  Cmin: 13.3 ng/mL and 6.92 ng/mL and 7.42 ng/mL
  Tmin: 4 h and 8 h
[9]; [17]
  Cmax: 149 ng/mL
  Tmax: 1 h and 6 h
[9]; first dose 1000 mg PO, Clast/elimination rate constant used for extrapolation, Pt# 19, 20
  First dose AUC0-∞: 986 ng·h/mL
[9]; [18]
  % of AUC0-∞ extrapolated: 36.0% and 36.2%
  Apparent oral clearance (clearance divided by fraction absorbed): 14.9 L/hr per kg of IBW
  Cmin: 45.5 ng/mL and 90.0 ng/mL
  First dose AUC0-τ: 629 ng·h/mL
  Tmin: 8 h
[9]; human, plasma, po, 1000 mg, first dose 1000 mg PO, plasma, individual patients Pt# 19, 20, read-out: Cmax
  Cmax: 182 ng/mL
[9]; human, plasma, po, 1000 mg, first dose 1000 mg PO, Clast/elimination rate constant used for extrapolation, Pt# 19, 20, read-out: First dose AUC0-∞
  AUC(0-inf): 1060 ng·h/mL
[9]; human, plasma, po, 1000 mg, first dose 1000 mg PO, Pt# 19, 20, read-out: Apparent oral clearance (clearance divided by fraction absorbed) (converted)
  CL/F: 203 mL/min/kg
[9]; human, plasma, po, 1000 mg, first dose 1000 mg PO, Pt# 19, 20, read-out: First dose AUC0-τ
  AUC: 676 ng·h/mL
[9]; male, human, plasma, po, 1000 mg, all 5 patients, 500 and 1000 mg cohorts, read-out: apparent oral clearance (CL/F), range over patients
  CL/F: 152 to 630 mL/min/kg
[10]
  concentrations at which cells were growth inhibited: ≥ 163.5 ng/mL
[11]
  anti-tumor effect of combination: synergistic
[12]
  solubility in acetone: soluble
  solubility in ethanol, chloroform, or ether: sparingly soluble
  solubility in water: almost insoluble
[13]; 500 mg PO TID cohort
  patients with any toxicities deemed at least possibly related to niclosamide: one out of three
[13]; 500 mg PO TID cohort, 3 patients, + enzalutamide
  dose-limiting toxicities (DLTs): no dose-limiting toxicities; also recorded: No DLTs observed
[13]; 500 mg PO TID in combination with enzalutamide
  tolerability: well tolerated
[13]; AE possibly/probably related, 500 mg PO TID + enzalutamide 160 mg daily, Pt# 1, 17, 18
  Nausea (Grade): 1 Grade
[13]; [19]
  Anorexia (Grade): 1 Grade
  Weight loss (Grade): 1 Grade
[13]; AE possibly/probably related, 1000 mg PO TID + enzalutamide 160 mg daily, Pt# 19, 20
  Nausea (Grade): 3 Grade and 3 ^* Grade and 2 Grade
[13]; [20]
  Abdominal pain (Grade): 3 Grade
  Anorexia (Grade): 1 Grade
  Colitis (Grade): 3 Grade and 3 ^** Grade
  Diarrhea (Grade): 3 Grade
  Lipase elevation (Grade): 2 Grade
  Vomiting (Grade): 3 Grade
[13]; PO TID, in combination with enzalutamide 160 mg daily
  maximum tolerated dose: 500 mg
[14]
  oral LD50: > 5,000 mg/kg body weight
